US4185032A, “Ureylene phenylene anionic naphthalenesulfonic acids” (American Cyanamid Company, priority 1978, dated 1980)
Counter-ions that a name gives are not always drawn.

Experiments:
activated human C1 = biological target: T1, activated human C1 (Homo sapiens, UniProt P09871); test: Test Code 026 (C1 inhibitor); format: biochemical; settings: well number in twofold serial dilution assay, higher = more active
T1 construct: fluid-phase human C2 as substrate in presence of C4
From the text: (§1) An active inhibitor protects C2 from C1 and C4; (ii) Test Code 035 (C3-C9 inhibitor)--This test determines the ability of the late components of human complement (C3-C9) to lyse EAC 142 in the presence of appropriate dilutions of the test compound. An active inhibitor protects EAC 142 from lysis by human C3-C9; (iii) Test Code 036 (C-Shunt inhibitor)--In this test human erythrocytes rendered fragile are lysed in autologous serum via the shunt pathway activated by cobra venom factor in the presence of appropriate dilutions of the test compound. Inhibition of the shunt pathway results in failure of lysis; (iv) Forssman Vasculitis Test--Here, the well known complement dependent lesion, Forssman vasculitis, is produced in guinea pigs by intradermal injection of rabbit anti-Forssman antiserum. The lesion is measured in terms of diameter, edema and hemorrhage and the extent to which a combined index of these is inhibited by prior intraperitoneal injection of the test compound at 200 mg/kg is then reported, unless otherwise stated; (v) Forssman Shock Test--Lethal shock is produced in guinea pigs by an i.v. injection of anti-Forssman antiserum and the harmonic mean death time of treated guinea pigs is compared with that of simultaneous controls; (vi) Complement Level Reduction Test--In this test, the above dosed guinea pigs, or others, are bled for serum and the complement level is determined in undiluted serum by the capillary tube method of U.S. Pat. No. 3,876,376 and compared to undosed control guinea pigs; and (viii) Cap 50 Test--Here, appropriate amounts of the test compound are added to a pool of guinea pig serum in vitro, after which the undiluted serum capillary tube assay referred to about is run. The concentration of compound inhibiting 50% is reported.

shunt pathway = test: Test Code 036 (C-Shunt inhibitor), lysis of human erythrocytes via the shunt pathway activated by cobra venom factor; format: cell-based
From the text: as §1

whole complement = test: Complement Level Reduction Test (in vivo, guinea pig; serum whole complement by capillary tube assay)
From the text: as §1
With reference to Table I. guinea pigs weighing about 300 g were dosed intravenously (i.v.) or intraperitoneally (i.p.) with 200 mg/kg of the test compound dissolved in saline and adjusted to pH 7-8. […] The serum was tested for whole complement using the capillary tube assay. Percent inhibition was calculated by comparison with simultaneous controls. The results appear in Table I together with results of tests code 026, 035, 036, Cap 50, % inhibition and Forssman shock.

[1] = test system: late components of human complement (C3-C9); test: Test Code 035 (C3-C9 inhibitor), lysis of EAC 142; format: cell-based
From the text: as §1

complement system = settings: literature, in words; cited from earlier work
[2] = test system: hereditary angioneurotic edema; settings: literature, in words; cited from earlier work
human serum complement = settings: in vitro and in vivo; reduction in total hemolytic complement activity; cited from earlier work
[3] = Table II (Intermediates), twofold serial dilution assay
[4] = Table I, well number in twofold serial dilution assay, higher = more active

T1 sequence (P09871 16-688): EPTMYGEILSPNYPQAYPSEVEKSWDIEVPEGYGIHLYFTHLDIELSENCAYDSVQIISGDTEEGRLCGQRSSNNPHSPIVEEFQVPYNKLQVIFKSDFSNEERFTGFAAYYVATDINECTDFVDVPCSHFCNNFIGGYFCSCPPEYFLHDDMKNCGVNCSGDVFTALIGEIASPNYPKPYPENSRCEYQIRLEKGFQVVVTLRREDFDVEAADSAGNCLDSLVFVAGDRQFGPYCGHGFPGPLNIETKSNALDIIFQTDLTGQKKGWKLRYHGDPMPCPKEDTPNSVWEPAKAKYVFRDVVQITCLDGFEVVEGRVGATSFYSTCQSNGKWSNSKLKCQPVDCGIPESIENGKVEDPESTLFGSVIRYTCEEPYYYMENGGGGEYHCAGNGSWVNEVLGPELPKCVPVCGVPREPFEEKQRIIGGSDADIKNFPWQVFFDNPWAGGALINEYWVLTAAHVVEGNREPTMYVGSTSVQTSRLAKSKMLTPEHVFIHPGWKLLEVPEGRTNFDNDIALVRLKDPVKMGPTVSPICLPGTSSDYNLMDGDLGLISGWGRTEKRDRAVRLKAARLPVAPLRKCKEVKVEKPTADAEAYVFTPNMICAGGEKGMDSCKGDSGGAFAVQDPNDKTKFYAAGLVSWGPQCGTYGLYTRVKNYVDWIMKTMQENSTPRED
T1 sequence (P00736 18-705 partner): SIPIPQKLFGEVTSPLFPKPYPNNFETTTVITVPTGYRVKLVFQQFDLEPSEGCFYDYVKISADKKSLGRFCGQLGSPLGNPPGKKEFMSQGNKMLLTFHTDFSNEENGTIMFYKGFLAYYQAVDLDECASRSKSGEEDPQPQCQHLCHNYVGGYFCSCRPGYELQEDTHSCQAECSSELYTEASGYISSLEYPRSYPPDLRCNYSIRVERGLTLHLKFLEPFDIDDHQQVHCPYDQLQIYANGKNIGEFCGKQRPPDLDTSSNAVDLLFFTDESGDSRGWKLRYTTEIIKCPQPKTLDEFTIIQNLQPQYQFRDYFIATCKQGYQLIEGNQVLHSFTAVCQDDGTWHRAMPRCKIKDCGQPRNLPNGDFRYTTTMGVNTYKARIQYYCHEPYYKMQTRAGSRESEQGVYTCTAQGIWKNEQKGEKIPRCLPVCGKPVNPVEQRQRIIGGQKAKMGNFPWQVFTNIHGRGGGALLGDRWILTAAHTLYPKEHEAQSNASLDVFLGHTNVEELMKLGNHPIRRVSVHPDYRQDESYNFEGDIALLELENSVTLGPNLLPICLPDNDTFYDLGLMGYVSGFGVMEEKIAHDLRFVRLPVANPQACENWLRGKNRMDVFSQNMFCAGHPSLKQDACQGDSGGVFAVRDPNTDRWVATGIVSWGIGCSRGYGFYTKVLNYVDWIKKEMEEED
T1 sequence (P02745 23-245 partner): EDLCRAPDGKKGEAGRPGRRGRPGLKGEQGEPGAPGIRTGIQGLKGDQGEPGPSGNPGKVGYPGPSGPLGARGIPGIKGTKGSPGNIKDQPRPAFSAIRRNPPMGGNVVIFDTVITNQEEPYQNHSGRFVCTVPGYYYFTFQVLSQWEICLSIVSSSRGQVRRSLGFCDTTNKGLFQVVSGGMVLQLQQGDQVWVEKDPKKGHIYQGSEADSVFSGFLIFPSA
T1 sequence (P02746 28-253 partner): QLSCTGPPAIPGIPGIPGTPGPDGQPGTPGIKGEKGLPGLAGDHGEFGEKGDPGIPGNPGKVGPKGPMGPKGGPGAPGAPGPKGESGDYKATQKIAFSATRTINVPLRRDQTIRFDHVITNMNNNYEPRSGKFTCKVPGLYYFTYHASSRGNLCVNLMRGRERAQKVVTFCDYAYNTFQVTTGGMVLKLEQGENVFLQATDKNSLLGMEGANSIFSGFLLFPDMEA
T1 sequence (P02747 29-245 partner): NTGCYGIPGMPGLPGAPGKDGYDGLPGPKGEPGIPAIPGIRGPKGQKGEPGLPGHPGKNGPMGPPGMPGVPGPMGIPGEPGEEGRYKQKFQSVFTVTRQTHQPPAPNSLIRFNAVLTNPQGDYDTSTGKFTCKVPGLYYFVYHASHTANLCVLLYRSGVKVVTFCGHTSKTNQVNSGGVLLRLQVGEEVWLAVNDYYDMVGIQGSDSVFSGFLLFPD

## Nc1ccc(C(=O)Nc2ccc(C(=O)Nc3ccc(S(=O)(=O)[O-])c4cc(S(=O)(=O)[O-])cc(S(=O)(=O)[O-])c34)c(S(=O)(=O)[O-])c2)c(S(=O)(=O)[O-])c1.[Na+].[Na+].[Na+].[Na+].[Na+] [8-[4-(4-Amino-2-sulfobenzamido)-2-sulfobenzamido]-1,3,5-naphthalenetrisulfonic acid, pentasodium salt]
Activated human C1; Table II (Intermediates)
  Cl 026 Wells: +4 wells
Shunt pathway; [3]
  Shunt Inhibition 036 Wells: N
Whole complement; Table II (Intermediates), i.p.
  % Inhibition, Intraperitoneal, 30 minutes: -15%
  % Inhibition, Intraperitoneal, 60 minutes: -17%
  % Inhibition, Intraperitoneal, 120 minutes: -23%
Whole complement; Table II (Intermediates), i.v.
  % Inhibition, Intravenous, 2 minutes: -52%
  % Inhibition, Intravenous, 30 minutes: -28%
  % Inhibition, Intravenous, 120 minutes: -10%
[1]; [3]
  C-Late 035 Wells: N

## Nc1ccc2cc(S(=O)(=O)O)cc(O)c2c1N=Nc1ccc(NC(=O)Nc2ccc(N=Nc3c(N)ccc4cc(S(=O)(=O)O)cc(O)c34)c(S(=O)(=O)O)c2)cc1S(=O)(=O)O [chloroazol fast pink, 3,3'-ureylenebis[6-(2-amino-8-hydroxy-6-sulfo-1-naphthylazo)benezenesulfonic acid], tetrasodium salt]
Complement system
  anticomplementary effect / complement inhibition: anticomplementary effect

## NC[C@H]1CC[C@H](C(=O)O)CC1 [tranexamic acid]
[2]
  success in the treatment of hereditary angioneurotic edema: used with success in the treatment of hereditary angioneurotic edema

## O=C(Nc1ccc(C(=O)Nc2ccc(C(=O)Nc3cc(S(=O)(=O)O)cc4cc(S(=O)(=O)O)cc(S(=O)(=O)O)c34)c(S(=O)(=O)O)c2)c(S(=O)(=O)O)c1)Nc1ccc(C(=O)Nc2ccc(C(=O)Nc3cc(S(=O)(=O)O)cc4cc(S(=O)(=O)O)cc(S(=O)(=O)O)c34)c(S(=O)(=O)O)c2)c(S(=O)(=O)O)c1 [8,8'-[Ureylenebis[(2-sulfo-4,1-phenylenecarbonyl)-imino](2-sulfo-4,1-phenylenecarbonyl)imino]di-1,3,6-naphthalenetrisulfonic acid, decasodium salt]
Activated human C1; Table I
  Cl 026 Wells: +8 wells
Whole complement; Table I, i.p. 200 mg/kg
  % Inhibition, Intraperitoneal, 30 minutes: -68%
  % Inhibition, Intraperitoneal, 60 minutes: -24%
  % Inhibition, Intraperitoneal, 120 minutes: -14%
[1]; [4]
  C-Late 035 Wells: +1 wells

## Nc1ccc(C(=O)Nc2ccc(C(=O)Nc3cc(S(=O)(=O)[O-])cc4cc(S(=O)(=O)[O-])cc(S(=O)(=O)[O-])c34)c(S(=O)(=O)[O-])c2)c(S(=O)(=O)[O-])c1.[Na+].[Na+].[Na+].[Na+].[Na+] [8-[4-(4-Amino-2-sulfobenzamido)-2-sulfobenzamido]-1,3,6-naphthalenetrisulfonic acid pentasodium salt]
Activated human C1; Table II (Intermediates)
  Cl 026 Wells: +5 wells
Shunt pathway; [3]
  Shunt Inhibition 036 Wells: N
Whole complement; Table II (Intermediates), i.v.
  % Inhibition, Intravenous, 2 minutes: -77%
  % Inhibition, Intravenous, 30 minutes: -43%
  % Inhibition, Intravenous, 120 minutes: -31%
[1]; [3]
  C-Late 035 Wells: N

## Nc1ccc(C(=O)Nc2cc(C(=O)O)cc(C(=O)Nc3ccc(S(=O)(=O)[O-])c4cc(S(=O)(=O)[O-])cc(S(=O)(=O)[O-])c34)c2)c(S(=O)(=O)[O-])c1.[Na+].[Na+].[Na+].[Na+] [5-(4-Amino-2-sulfobenzamido)-N-(4,6,8-trisulfo-1-naphthyl)isophthalamic acid, tetrasodium salt]
Activated human C1; Table II (Intermediates)
  Cl 026 Wells: +3 wells
Shunt pathway; [3]
  Shunt Inhibition 036 Wells: N
[1]; [3]
  C-Late 035 Wells: N

## heparin
Complement system
  anticomplementary effect / complement inhibition: anticomplementary effect

## NCCCCCC(=O)O [epsilon-aminocaproic acid]
[2]
  success in the treatment of hereditary angioneurotic edema: used with success in the treatment of hereditary angioneurotic edema

## O=C(Nc1cc(C(=O)O)cc(C(=O)Nc2cc(C(=O)O)cc(C(=O)Nc3ccc(S(=O)(=O)O)c4cc(S(=O)(=O)O)cc(S(=O)(=O)O)c34)c2)c1)Nc1cc(C(=O)O)cc(C(=O)Nc2cc(C(=O)O)cc(C(=O)Nc3ccc(S(=O)(=O)O)c4cc(S(=O)(=O)O)cc(S(=O)(=O)O)c34)c2)c1 [5,5'-Ureylenebis[N-[3-carboxy-5-(4,6,8-trisulfo-1-naphthylca] [5,5'-Ureylenebis[N-[3-carboxy-5-(4,6,8-trisulfo-1-naphthaylcarbamoyl)phenyl]isophthalamic acid], decasodium salt]
Whole complement; Table I, i.p. 200 mg/kg
  % Inhibition, Intraperitoneal, 30 minutes: -86%
  % Inhibition, Intraperitoneal, 60 minutes: -89%
  % Inhibition, Intraperitoneal, 120 minutes: -96%
[1]; [4]
  C-Late 035 Wells: +2 wells

## O=C(Nc1ccc(C(=O)Nc2ccc(C(=O)Nc3ccc(S(=O)(=O)[O-])c4cc(S(=O)(=O)[O-])cc(S(=O)(=O)[O-])c34)c(S(=O)(=O)[O-])c2)c(S(=O)(=O)[O-])c1)Nc1ccc(C(=O)Nc2ccc(C(=O)Nc3ccc(S(=O)(=O)[O-])c4cc(S(=O)(=O)[O-])cc(S(=O)(=O)[O-])c34)c(S(=O)(=O)[O-])c2)c(S(=O)(=O)[O-])c1.[Na+].[Na+].[Na+].[Na+].[Na+].[Na+].[Na+].[Na+].[Na+].[Na+] [8,8'-[Ureylenebis[(2-sulfo-4,1-phenylenecarbonyl)imino(2-sulfo-4,1-phenylenecarbonyl)imino]]di-1,3,5-naphthalenetrisulfonic acid, decasodium salt]
Activated human C1; Table I
  Cl 026 Wells: +7 wells
Shunt pathway; [4]
  Shunt Inhibition 036 Wells: +4 wells
Whole complement; Table I, i.p. 200 mg/kg
  % Inhibition, Intraperitoneal, 30 minutes: -31%
  % Inhibition, Intraperitoneal, 60 minutes: -36%
  % Inhibition, Intraperitoneal, 120 minutes: -58%
Whole complement; Table I, i.v. 200 mg/kg
  % Inhibition, Intravenous, 2 minutes: -38%
  % Inhibition, Intravenous, 30 minutes: -47%
  % Inhibition, Intravenous, 120 minutes: -22%
[1]; [4]
  C-Late 035 Wells: +1 wells

## O=C(Nc1ccc(C(=O)Nc2cc(C(=O)O)cc(C(=O)Nc3ccc(S(=O)(=O)O)c4cc(S(=O)(=O)O)cc(S(=O)(=O)O)c34)c2)c(S(=O)(=O)O)c1)Nc1ccc(C(=O)Nc2cc(C(=O)O)cc(C(=O)Nc3ccc(S(=O)(=O)O)c4cc(S(=O)(=O)O)cc(S(=O)(=O)O)c34)c2)c(S(=O)(=O)O)c1 [5,5'-[Ureylenebis[(2-sulfo-4,1-phenylenecarbonyl)-imino]]bis[N-4,6,8-trisulfo-1-naphthylisophthalamic acid], octasodium salt]
Activated human C1; Table I
  Cl 026 Wells: +6 wells
Shunt pathway; [4]
  Shunt Inhibition 036 Wells: +5 wells
[1]; [4]
  C-Late 035 Wells: +2 wells

## Nc1cc(C(=O)O)cc(C(=O)Nc2cc(C(=O)O)cc(C(=O)Nc3ccc(S(=O)(=O)[O-])c4cc(S(=O)(=O)[O-])cc(S(=O)(=O)[O-])c34)c2)c1.[Na+].[Na+].[Na+] [5-Amino-3'-carboxy-5'-(4,6,8-trisulfo-1-naphthylcarbamoyl)isophthalanilic acid, trisodium salt]
Activated human C1; Table II (Intermediates)
  Cl 026 Wells: +3 wells
Shunt pathway; [3]
  Shunt Inhibition 036 Wells: N
[1]; [3]
  C-Late 035 Wells: N

## Cc1ccc(C(=O)Nc2ccc(S(=O)(=O)O)c3cc(S(=O)(=O)O)cc(S(=O)(=O)O)c23)cc1NC(=O)c1cccc(NC(=O)Nc2cccc(C(=O)Nc3cc(C(=O)Nc4ccc(S(=O)(=O)O)c5cc(S(=O)(=O)O)cc(S(=O)(=O)O)c45)ccc3C)c2)c1 [Suramin, reference compound]
Complement system
  anticomplementary effect / complement inhibition: moderately active as a complement inhibitor
Activated human C1; Table I
  Cl 026 Wells: +4 wells
Whole complement; Table I, i.p. 200 mg/kg
  % Inhibition, Intraperitoneal, 30 minutes: -9%
  % Inhibition, Intraperitoneal, 60 minutes: -17%
  % Inhibition, Intraperitoneal, 120 minutes: -44%

## pentosan-polysulfoester
Human serum complement
  anticomplementary activity on human serum: anticomplementary activity on human serum, both in vitro and in vivo
